The subject of test [1] is NPC1 human fibroblast GM03123 cells. In words: Filipin microscopy assay of free cholesterol in lysosomal storage organelles (LSO ratio). It is filed as cell-based. The conditions noted are these: for EC50: read-out: EC50 for correcting the NPC1 phenotype; for effect on NPC1 phenotype: after 4 hours.
Experimental: Images were acquired with wide-field microscopy at 10× magnification. […] The effect of each HDACi on NPC1 human fibroblasts was then determined at varying concentrations and times. […] Briefly, NPC1 human fibroblast GM03123 cells were seeded in five 384-well plates in growth medium. […] HDACi were allowed to remain in the culture medium for 72, 48, 24, 4, and 0 hours of treatment. For the control, cells were treated with a corresponding concentration of dimethyl sulfoxide (DMSO). HDACi were added to five wells for each concentration. […] Images were analyzed to obtain an LSO ratio and data were normalized to corresponding DMSO-treated cells.
The subject of test [2] is NPC1 human fibroblast GM18453 cells. As to the kind of experiment: Filipin microscopy assay of free cholesterol in LSO (LSO ratio). Format: cell-based.
Experimental: Next, the effect of HDACi on NPC1I1061T homozygous NPC1 human fibroblasts (GM18453) and on NPC2 human fibroblasts (GM18445) was evaluated. Briefly, NPC1 human fibroblast GM18453 cells and NPC2 human fibroblast GM18455 cells were seeded in five 384-well plates in growth medium. […] Cells were incubated at 37° C. in the presence of 5% CO2 atmosphere for 48 hours. […] Images were analyzed to obtain an LSO ratio and data were normalized to corresponding DMSO-treated cells. […] The dotted horizontal lines indicate mean values for the solvent control, and error bars represent the standard error.
Briefly, NPC1 human fibroblast GM18453 cells and NPC2 human fibroblast GM18455 cells were seeded in five 384-well plates in growth medium. […] Cells were incubated at 37° C. in the presence of 5% CO2 atmosphere for 48 hours. […] Images were analyzed to obtain an LSO ratio, and data were normalized to corresponding DMSO-treated cells. […] The dotted horizontal lines indicate mean values for the solvent control, and the error bars represent the standard error.
Another test deals with HDAC2 (Homo sapiens, UniProt Q92769). The conditions noted are these: read-out: Inhibition constant Ki HDAC2; cited from earlier work.
Setting [3] is: Homo sapiens, Fibroblast, after 48 hours.

Consider seven compounds from patent publication US9333222B2, “Histone deacetylase inhibitors as therapeutic agents for Niemann-Pick type C disease” (University of Notre Dame du Lac, priority 2009, dated 2016).

In general, EC50 refers to the concentration needed to bring the measured effect to its halfway point. By Ki is commonly meant a measure of affinity in units of concentration, obtained from inhibition or displacement.

Where two headings read alike, the source gives them in different places. Where only a bound is given, the exact number is not on record here.

Chain of HDAC2 (Q92769 whole entry, species assumed): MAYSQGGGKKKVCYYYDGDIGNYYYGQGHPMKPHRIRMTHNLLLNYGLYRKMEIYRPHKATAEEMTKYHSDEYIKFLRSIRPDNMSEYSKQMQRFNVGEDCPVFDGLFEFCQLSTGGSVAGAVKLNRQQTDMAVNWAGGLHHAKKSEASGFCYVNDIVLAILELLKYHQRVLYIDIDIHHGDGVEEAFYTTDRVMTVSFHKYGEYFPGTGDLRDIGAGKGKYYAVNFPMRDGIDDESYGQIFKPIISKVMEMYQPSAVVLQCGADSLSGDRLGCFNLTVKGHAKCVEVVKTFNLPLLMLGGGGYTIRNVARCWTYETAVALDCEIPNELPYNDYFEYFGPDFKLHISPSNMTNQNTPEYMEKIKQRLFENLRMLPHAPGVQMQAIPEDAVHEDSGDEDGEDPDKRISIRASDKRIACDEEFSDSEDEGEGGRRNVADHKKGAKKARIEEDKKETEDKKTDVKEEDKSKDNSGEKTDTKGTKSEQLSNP

`CCCCOc1ccc(CC(=O)NO)cc1` [Bufexamac]: the “correction of the NPC1 phenotype” value in test [1] (various concentrations (0.04-10 μM) and times (4-72 hours), GM03123) is given as “no correction of the NPC1 phenotype”.

Turning to `CC(=O)Nc1ccc(C(=O)Nc2ccccc2N)cc1` [CL-994], the EC50 in test [1] (setting [3]) is about 1000 nM. The “effect on NPC1 phenotype” value in test [1] (GM03123) is “no effect”. Regarding `Cc1[nH]c2ccccc2c1CCNCc1ccc(/C=C/C(=O)NO)cc1` [LBH-589, panobinostat], the EC50 in test [1] (Homo sapiens, Fibroblast, 48 h) was under 4 nM. For the same compound, the “concentration of highest efficacy in correcting the NPC1 phenotype” value in test [2] (48-hour treatment, GM18453) came to 37 nM. In the case of `COc1ccc(Cn2ccc3ccc(C(=O)NO)cc32)cc1` [PCI-34051], in test [2] (40 nM to 10 μM, 48 hours, NPC1 human fibroblasts (FIG. 6)), the “correction of the NPC1 phenotype” value is on record as “no correction of the NPC1 phenotype”. For the compound `O=C(CCCCCCC(=O)Nc1cccnc1)NO` [Pyroxamide], the EC50 in test [1] (setting [3]) was about 1000 nM. Besides, at HDAC2, the Ki was 3.6 nM. As for `O=C(CCCCCCC(=O)Nc1ccccc1)NO` [SAHA, vorinostat], the “effect on NPC1 phenotype” value in test [1] (GM03123) was “no effect”. As for `CC(/C=C/C(=O)NO)=C\[C@@H](C)C(=O)c1ccc(N(C)C)cc1` [TSA, trichostatin A], the EC50 in test [1] (after 48 hours) was about 20 nM.
